According to PubChem BioAssay (NCI):
Several values for one entry are separate records, joined by “and”; a condition that tells them apart may be missing. Identical values can stand only once.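 Grown in 96-well plates, cells were treated for 48 hours with each compound at five concentrations. Insufficient inhibition: endpoint recorded as highest concentration tested. At the GI50, growth is halved. TGI denotes the concentration required for complete inhibition of growth.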

What was measured:
Assay in all cases: NCI anticancer screen, dose series, 48 h
[1] = test system: SNB-75 CNS
[2] = test system: MOLT-4 leukemia
[3] = test system: M14 melanoma
[4] = test system: HT29 colon
[5] = test system: OVCAR-3 ovarian
[6] = test system: 786-0 renal
[7] = test system: DU-145 prostate
[8] = test system: UO-31 renal
[9] = test system: HCC-2998 colon
[10] = test system: A549 NSCLC

Work on COc1cccc(Oc2ccccc2NC(=O)CNC(=O)c2cccc3ccccc23)c1 yielded a GI50 [1] of 0.128 µM, a TGI [1] of over 25 µM and a GI50 [2] of 0.654 µM. The TGI [2] was over 25 µM, the GI50 [3] was 0.157 µM and the TGI [3] was over 25 µM. The GI50 [4] was 0.11 µM, the TGI [4] was 1.04 µM and the GI50 [5] was 0.0999 µM. For the same compound, the TGI [5] was 1.25 µM, the GI50 [6] was 0.183 µM and the TGI [6] was over 25 µM. The GI50 [7] was 0.703 µM, the TGI [7] was over 25 µM and the GI50 [8] was 1.8 µM. It also gave a TGI [8] of over 25 µM, a GI50 [9] of 1.25 µM and a TGI [9] of over 25 µM. It also gave a GI50 [10] of 0.315 µM and a TGI [10] of over 25 µM.
Work on Oc1cc(-n2cccn2)c(O)cc1-n1cccn1 yielded a TGI [1] of over 97.3 µM, a TGI [2] of 61.8 µM and a TGI [3] of 60.4 µM. It also gave a TGI [4] of 56.2 µM, a TGI [5] of 40 µM and a TGI [6] of 31.3 µM. The TGI [7] was over 69.5 µM, the TGI [8] was 54.2 µM and the TGI [9] was over 100 µM. The TGI [10] was over 100 µM.
For COc1ccc(/C=C(/C)[N+](=O)[O-])cc1OC, the GI50 [1] was 4.71 µM and 3.76 µM, the TGI [1] was 18 µM and 13.9 µM and the GI50 [2] was 2.94 µM and 3.32 µM. The GI50 [3] was 1.97 µM and 1.69 µM, the TGI [3] was 3.8 µM and 3.42 µM and the GI50 [4] was 2.62 µM and 1.41 µM. The TGI [4] was 5.92 µM and 4.07 µM, the GI50 [5] was 1.89 µM and 1.79 µM and the TGI [5] was 3.35 µM and 3.44 µM. The GI50 [6] was 1.89 µM and 1.79 µM, the TGI [6] was 3.39 µM and 3.36 µM and the GI50 [7] was 2.42 µM and 2.45 µM. The TGI [7] was 5.72 µM and 5.67 µM, the GI50 [8] was 1.74 µM and 1.61 µM and the TGI [8] was 3.26 µM and 3.23 µM. For the same compound, the GI50 [9] was 1.8 µM and 1.77 µM, the TGI [9] was 3.27 µM and 3.32 µM and the GI50 [10] was 6.05 µM and 4.13 µM. For the same compound, the TGI [10] was 19.7 µM and 17.7 µM.
COc1cc(C(=O)Nc2cc(O)c(CC=C(C)C)c(O)c2)cc2c1O[C@]1(C)CC[C@@H](O)C(C)(C)[C@H]1C2 was tested, and the GI50 [1] was 0.33 µM, the TGI [1] was 17 µM and the GI50 [2] was 0.0641 µM. For the same compound, the TGI [2] was 1.38 µM, the GI50 [3] was 0.333 µM and the TGI [3] was 2.35 µM. It also gave a GI50 [4] of 1.9 µM, a TGI [4] of 12.3 µM and a GI50 [5] of 3.83 µM. It also gave a TGI [5] of 62 µM, a GI50 [6] of 0.0342 µM and a TGI [6] of 6.85 µM. For the same compound, the GI50 [7] was 1.87 µM, the TGI [7] was 21.7 µM and the GI50 [8] was 0.506 µM. It also gave a TGI [8] of 4.13 µM, a GI50 [9] of 3.13 µM and a TGI [9] of 13.8 µM. For the same compound, the GI50 [10] was 1.05 µM and the TGI [10] was 24.6 µM.
Work on COc1cc(-c2nn(-c3cccc(NC(=O)CCN4CCN(Cc5ccccc5)CC4)c3)cc2-c2ccncc2)ccc1Cl yielded a GI50 [1] of 1.55 µM, a TGI [1] of 8.73 µM and a GI50 [2] of 1.15 µM. It also gave a TGI [2] of 5.8 µM, a GI50 [3] of 0.696 µM and a TGI [3] of 2.21 µM. It also gave a GI50 [4] of 0.314 µM, a TGI [4] of 1.55 µM and a GI50 [5] of 0.395 µM. For the same compound, the TGI [5] was 1.77 µM, the GI50 [6] was 1.33 µM and the TGI [6] was 3.02 µM. For the same compound, the GI50 [7] was 1.56 µM, the TGI [7] was 10.9 µM and the GI50 [8] was 0.887 µM. It also gave a TGI [8] of 6.56 µM, a GI50 [9] of 1.68 µM and a TGI [9] of 3.82 µM. It also gave a GI50 [10] of 1.72 µM and a TGI [10] of 11.6 µM.
Compound O=Nc1c(-c2c(O)[nH]c3ncccc23)[nH]c2ccccc12 has a GI50 [1] of 2.56 µM, a TGI [1] of over 100 µM and a GI50 [2] of 3.4 µM. The TGI [2] was over 100 µM, the GI50 [3] was 10.8 µM and the TGI [3] was over 100 µM. For the same compound, the GI50 [4] was over 94.2 µM, the TGI [4] was over 100 µM and the GI50 [5] was over 100 µM. The TGI [5] was over 100 µM, the GI50 [6] was 21.8 µM and the TGI [6] was over 100 µM. For the same compound, the GI50 [7] was over 23.9 µM, the TGI [7] was over 100 µM and the GI50 [8] was 1.64 µM. For the same compound, the TGI [8] was over 100 µM, the GI50 [9] was over 24.4 µM and the TGI [9] was over 100 µM. It also gave a GI50 [10] of 5.71 µM and a TGI [10] of over 100 µM.
COc1ccc2c(-c3ccnc(Nc4cccc(OC(F)(F)F)c4)n3)cnn2n1 was tested, and the GI50 [1] was 0.806 µM, the TGI [1] was 4.88 µM and the GI50 [2] was 2.23 µM. It also gave a TGI [2] of over 25 µM, a GI50 [3] of 1.26 µM and a TGI [3] of over 12.9 µM. It also gave a GI50 [4] of 0.912 µM, a TGI [4] of 3.06 µM and a GI50 [5] of 0.661 µM. For the same compound, the TGI [5] was 1.68 µM, the GI50 [6] was 1.72 µM and the TGI [6] was 5.48 µM. It also gave a GI50 [7] of 1.35 µM, a TGI [7] of 17.6 µM and a GI50 [8] of 2.55 µM. For the same compound, the TGI [8] was over 12.3 µM, the GI50 [9] was 2.14 µM and the TGI [9] was 8.82 µM. The GI50 [10] was 1.82 µM and the TGI [10] was 5.42 µM.
CN1CCc2nc3sc(C(N)=O)c(N)c3c(-c3cccs3)c2C1 was tested, and the GI50 [1] was 2.81 µM, the TGI [1] was 8.03 µM and the GI50 [2] was 2.89 µM. It also gave a TGI [2] of 48.4 µM, a GI50 [3] of 4.19 µM and a TGI [3] of 19.4 µM. It also gave a GI50 [4] of 3.11 µM, a TGI [4] of 70.9 µM and a GI50 [5] of 2.16 µM. The TGI [5] was 6.23 µM, the GI50 [6] was 4.41 µM and the TGI [6] was over 100 µM. The GI50 [7] was 3.91 µM, the TGI [7] was 86.9 µM and the GI50 [8] was 3.47 µM. It also gave a TGI [8] of over 100 µM, a GI50 [9] of 3.54 µM and a TGI [9] of 20.9 µM. For the same compound, the GI50 [10] was 3.37 µM and the TGI [10] was over 100 µM.
With COc1ccc(Nc2ccnc(N3CCN(c4ccnc5cc(Cl)ccc45)CC3)n2)cc1 the GI50 [1] was 1.4 µM, the TGI [1] was 4.82 µM and the GI50 [2] was 1.56 µM. It also gave a TGI [2] of 4.37 µM, a GI50 [3] of 0.768 µM and a TGI [3] of 3.28 µM. For the same compound, the GI50 [4] was 0.542 µM, the TGI [4] was 4.92 µM and the GI50 [5] was 0.729 µM. For the same compound, the TGI [5] was 15.4 µM, the GI50 [6] was 1.4 µM and the TGI [6] was 6.87 µM. The GI50 [7] was 2.59 µM, the TGI [7] was over 30.5 µM and the GI50 [8] was 0.629 µM. It also gave a TGI [8] of 4.29 µM, a GI50 [9] of 2.73 µM and a TGI [9] of over 55.4 µM. It also gave a GI50 [10] of 1.47 µM and a TGI [10] of over 100 µM.
Nc1n[nH]c2ccc([C@@H]3Nc4cc5c(cc4[C@H]4C6CCC(C6)[C@@H]34)C(=O)NC5)cc12 (stereo partly drawn) showed a GI50 [1] of 0.718 µM, a TGI [1] of over 100 µM and a GI50 [2] of 0.415 µM. For the same compound, the TGI [2] was over 100 µM, the GI50 [3] was 0.287 µM and the TGI [3] was over 43.1 µM. It also gave a GI50 [4] of 0.393 µM, a TGI [4] of over 100 µM and a GI50 [5] of 0.305 µM. The TGI [5] was 1.19 µM, the GI50 [6] was 0.557 µM and the TGI [6] was over 100 µM. For the same compound, the GI50 [7] was 0.416 µM, the TGI [7] was over 40.7 µM and the TGI [8] was over 100 µM. It also gave a GI50 [9] of 0.362 µM, a TGI [9] of over 41.5 µM and a GI50 [10] of 1.56 µM. The TGI [10] was over 100 µM.
